The results in this text go back to article PMC10573175 (International Journal of Molecular Sciences, 2023).

For test [1], the target named is T1, human serum albumin (HSA) (Homo sapiens, UniProt P02768). The experiment in a line: Effect of paracetamol on HSA–ceftazidime binding (fluorescence quenching, Lineweaver–Burk analysis). Conditions: for KSV: 25 °C. On the procedure:
(§1) UV-visible studies were performed on a Perkin Elmer Lambda 45 spectrophotometer (Germany) within the range of 200 nm to 500 nm as required. Intrinsic fluorescence measurements were performed on a Hitachi F 7000 spectrofluorometer (Japan) equipped with the programmable temperature controller. The excitation and emission slit widths were adjusted to 5 nm with a PMT voltage of 500 V. Circular dichroism (CD) spectrophotometric recordings were obtained with a Jasco J-815 spectropolarimeter (Japan) using a quartz cuvette of […]. The studies were carried out in the 20 mM tris buffer of pH 7.4 and at 25 °C unless stated otherwise. Autodock 4.2 [36] was used to perform molecular docking and MD simulations were performed through GROMACS 2021.3 [37] with the utilization of the CHARMM force field for a production run of 100 ns. The detailed methodology is given in the Supplementary Materials.

The target in test [2] is T1, human serum albumin (HSA). Briefly: Intrinsic fluorescence quenching of HSA by ceftazidime (Stern–Volmer, modified Stern–Volmer, Van't Hoff analysis). Format: binding. Conditions: for KSV (Stern–Volmer quenching constant): 20 mM tris buffer pH 7.4, excitation 295 nm; for ΔG (free energy change of binding): Van't Hoff.
From the text: The intrinsic fluorescence of HSA is mainly contributed by a single tryptophan residue, which can be excited at 295 nm to give the maximum fluorescence emission at 340 nm. […] The corrected fluorescence data are used to further analyze the results given in the next section.
The fluorescence quenching is the result of either stable complex formation between fluorophore and the quencher or there is a collisional encounter between them. The first phenomenon is termed as static quenching, while the second one is known as dynamic quenching. […] The involvement of the quenching mechanism, either static or dynamic, can be understood with the help of temperature variation. Dynamic quenching increases in increasing the temperature while static quenching constant decreases in such a case.
The binding constant (Kb) and number of binding sites (n) can also be estimated using the modified Stern–Volmer equation as:(2) logF0−F/F=logKb+nlog[Q].
Van’t Hoff equations (given in Equations (S2) and (S3)) can be used to evaluate the thermodynamic parameters such as the free energy change (ΔG), enthalpy change (ΔH), and entropy change (ΔS) of a process using the values of physical parameters at equilibrium. Herein, we used the binding constant, Kb, at three different temperatures to fit into the Equation (S1) to obtain the values of ΔH from the slope and ΔS from the intercept of the plot of ln Kb vs. 1/T (Figure 5A), which are given in Table 1. The values of ΔH and ΔS were, further, used to calculate ΔG. From the evaluation of thermodynamic parameters, involvement of the major forces in the binding can be understood along with the feasibility of the interaction. According a to report published by Ross and Subramanian, hydrogen bonding interactions dominate when the values of ΔH and ΔS are negative, whereas positive values of these parameters can be observed in case of hydrophobic interactions.
as §1, with “Materials. […]” for “Materials.”

Test [3] has as its target T1, human serum albumin (HSA). Briefly: Competitive binding site assay with site markers warfarin, ibuprofen and hemin (fluorescence quenching). The note with it: for KSV: 25 °C.
From the text: DS1 is located in subdomain IIA, while DS2 is located in subdomain IIIA. There are several molecules that have the specific affinities towards these binding sites; for instance, warfarin binds strongly at DS1 and ibuprofen binds at DS2 [12]. There is another binding site within HSA, which is also known as fatty acid binding site 1, located in subdomain IB, which has a precise affinity for hemin [12]. Therefore, these molecules could be considered as the specific site markers for these sites and can be used to see the competitive binding between the molecule under consideration. […] The corresponding quenching and binding plots are given in Figure 7A,B and the calculated values of quenching and binding constants are shown in Table 2. […] To obtain more understanding on the binding site, we performed computational studies using molecular docking and molecular dynamics simulations, which will be described in the next sub-sections.
as §1

The target of the next test is HSA (Homo sapiens, UniProt P02768). Briefly: Far-UV circular dichroism spectroscopy of HSA with ceftazidime. Conditions: far-UV CD, dependent on drug concentration. On the procedure:
as §1
Non-steroidal anti-inflammatory drug effect on the binding of p lasma […]
on Perkin-Elmer Lambda 45 Spectrophotometer equipped with autosampler and water-
bath with temperature controller. Quartz cuvettes of 1 cm path length were used for the
Fluorescence measurements were performed on Hitachi spectrofluorometer (Model […]
fluorescence spectra were collected at 25 °C with a cell of path length 1 cm. […]
and emission slits were set at 5 nm. Intrinsic fluorescence was measured by exciting […]
(In general: Circular dichroism is the unequal absorption of left and right circularly polarised light.)

[4] abbreviates: Van't Hoff plot of ln Kb vs. 1/T, 25–45 °C.

Structures are written as SMILES.

T1 sequence (P02768 25-609): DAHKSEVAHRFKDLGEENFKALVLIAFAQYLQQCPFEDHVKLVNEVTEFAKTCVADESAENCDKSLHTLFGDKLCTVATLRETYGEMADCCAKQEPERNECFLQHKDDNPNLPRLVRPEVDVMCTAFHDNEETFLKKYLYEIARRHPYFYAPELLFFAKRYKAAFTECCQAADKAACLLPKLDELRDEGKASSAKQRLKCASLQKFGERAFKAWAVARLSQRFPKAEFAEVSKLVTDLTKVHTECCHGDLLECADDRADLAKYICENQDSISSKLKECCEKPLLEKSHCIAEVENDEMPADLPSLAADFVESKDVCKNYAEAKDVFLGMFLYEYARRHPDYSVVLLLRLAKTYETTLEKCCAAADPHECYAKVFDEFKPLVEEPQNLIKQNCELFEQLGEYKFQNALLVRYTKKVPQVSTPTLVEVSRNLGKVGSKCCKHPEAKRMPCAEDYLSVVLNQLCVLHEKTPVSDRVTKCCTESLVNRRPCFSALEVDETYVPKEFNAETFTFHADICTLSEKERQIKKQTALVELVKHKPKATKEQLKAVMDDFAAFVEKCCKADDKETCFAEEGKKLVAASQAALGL
Chain of HSA (P02768 25-609): as above

On to `CC(=O)Nc1ccc(O)cc1` [Paracetamol, paracetamol], for which the “type of inhibition of HSA–ceftazidime binding” value in test [1] (Lineweaver–Burk plots) is “non-competitive”.

Consider `CC(C)(O/N=C(\C(=O)N[C@@H]1C(=O)N2C(C(=O)[O-])=C(C[n+]3ccccc3)CS[C@H]12)c1csc(N)n1)C(=O)O` [Ceftazidime], for which the “n (number of binding sites)” value in test [2] (25 °C) is 0.96; in test [2] (35 °C), 1.01; in test [2] (45 °C), 1.09. Besides, the results for the “KSV (Stern–Volmer quenching constant)” value in test [2] (25 °C), in test [2] (35 °C) and in test [2] (45 °C) were 2.3 × 10^3 M^–1, 2.6 × 10^3 M^–1 and 3.2 × 10^3 M^–1, respectively. Further, the “ΔG (free energy change of binding)” value in test [2] (25 °C) is -4.4 kcal/mol; in test [2] (35 °C), -4.95 kcal/mol; in test [2] (45 °C), -5.5 kcal/mol. Besides, the quenching mechanism result in test [2] (KSV increased on increasing the temperature) is recorded as “dynamic quenching mechanism”. Besides, the “ΔH (enthalpy change of binding)” value in test [2] (setting [4]) worked out at 11.8 kcal/mol. Also, the “ΔS (entropy change of binding)” value in test [2] (setting [4]) is on record as 227.8 J mol^−1 K^−1. Further, the KSV in test [3] (in the presence of hemin (site marker subdomain IB)) is reported as 1.3 × 10^3 M^–1; in test [3] (in the presence of ibuprofen (site marker DS2)), 2.3 × 10^3 M^–1; in test [3] (in the presence of warfarin (site marker DS1)) it was 1.7 × 10^3 M^–1; in test [1] (in the presence of 50 µM paracetamol), 2.2 × 10^3 M^–1; in test [1] (in the presence of 100 µM paracetamol), 1.8 × 10^3 M^–1; in test [1] (in the presence of 150 µM paracetamol), 1.7 × 10^3 M^–1. The KSV is 1.6 × 10^3 M^–1 in test [1] (in the presence of 250 µM paracetamol) and 1.3 × 10^3 M^–1 in test [1] (in the presence of 500 µM paracetamol). Moreover, the “preferred binding site within HSA” value in test [3] (site markers and docking) was “subdomain IB”. On HSA, the “effect on secondary structure of HSA” value is “partial unfolding of the protein”.
